Measurements published in the pKa sets of Baltruschat and Czodrowski (2020).

| Structure (SMILES) | pKa |
| --- | --- |
| N[C@H]1C[C@]1(F)c1ccccc1 | 7.35 |
| CS(=O)(=O)Nc1ccc(Nc2c3ccccc3nc3ccccc23)cc1 | 7.19 |
| Brc1ccccc1Nc1c2ccccc2nc2ccccc12 | 6.41 |
| CC12CC3CC(C)(C1)CC(N)(C3)C2 | 10.4 |
| Cc1cc(Cl)cc(Cl)c1N=C1NCCN1 | 9.03 |
| CCCS(=O)(=O)Nc1ccc(Nc2c3ccccc3nc3ccccc23)cc1 | 7.2 |
| CS(=O)(=O)Nc1ccc(Nc2c3ccccc3nc3cc([N+](=O)[O-])ccc23)cc1 | 5.52 |
| Cc1ccc(NS(=O)(=O)Cc2ccccc2)c(=O)n1CC(=O)NCc1nc(CN)cs1 | 7.4 |
| Fc1ncc[nH]1 | 2.4 |
| Cc1ccc(NS(=O)(=O)Cc2ccccc2)c(=O)n1CC(=O)NCc1cnc(N)cn1 | 2.7 |
| Cc1nc2c(OCc3ccccc3)nccn2c1N | 4.6 |
| CN(C)C(C)(C)CCCc1ccc(C(C)(C)C)cc1 | 10.4 |
| CC1=NS(=O)(=O)c2cc(Cl)ccc2N1 | 8.62 |
| NCCCF | 9.9 |
| CN(C)CCCCc1ccc(C2(C)COC2)cc1 | 9.9 |
| CS(=O)(=O)Nc1ccc(Nc2c3ccccc3nc3c(Cl)cccc23)cc1 | 5.92 |

| Structure (SMILES) | pKa |
| --- | --- |
| O=[PH](O)CCc1ccccc1 | 1.98 |
| N[C@@H](CCC(=O)N[C@@H](CS)C(=O)NCC(=O)O)C(=O)O | 8.7 |
| NS(=O)(=O)Cc1ccc(Nc2c3ccccc3nc3ccccc23)cc1 | 7.05 |
| CS(=O)(=O)[O-].NC(=O)CCc1ccc(Nc2c3ccccc3[nH+]c3ccccc23)cc1 | 7.63 |
| O=C(Nc1ccccc1)Nc1ccc(Nc2c3ccccc3nc3ccccc23)cc1 | 7.67 |
| Cc1nc2c(OCc3ccccc3)cccn2c1N | 6.81 |
| OB(O)C1=CCCS1 | 7.16 |
| CSc1nc(N)c2ncn([C@@H]3O[C@H](COP(=O)(O)OP(=O)(O)CP(=O)(O)O)[C@@H](O)[C@H]3O)c2n1 | 8.4 |
| CN(C)CCCCc1ccc(C2COC2)cc1 | 9.9 |
| O=C(O)CCCc1ccc(N(CCCl)CCCl)cc1 | 5.8 |
| BP(=O)(OC[C@H]1O[C@@H](n2cnc3c(N)ncnc32)[C@H](O)[C@@H]1O)OP(=O)(O)C(Cl)(Cl)P(=O)(O)O (some centres not stated) | 7 |
| CS(=O)(=O)Nc1ccc(Nc2c3ccccc3nc3c(C(N)=O)cccc23)cc1 | 6.12 |
| CC(C)c1ccccc1Nc1c2ccccc2nc2ccccc12 | 7.64 |
| CCCCCS(=O)(=O)NCCCc1ccc(OCCOC)cc1Oc1ncc(C(F)(F)F)cc1Cl | 17.5 |
| CCOc1cccc2c(Nc3ccc(NS(C)(=O)=O)cc3OC)c3ccccc3nc12 | 7.37 |
| CS(=O)(=O)Nc1ccc(Nc2c3ccccc3nc3cccnc23)cc1 | 6.9 |
